Columns and labels:
MCF-7 cells = experiment: MCF-7 cell proliferation inhibition; assay type: cell-based; details: 6 days incubation, CellTiter-Glo; read-out: IC50 for MCF-7 cell proliferation inhibition
Protocol: EMEM medium was purchased from Wisent, and fetal bovine serum was purchased from Biosera. Promega CellTiter-Glo reagent. MCF-7 cells were purchased from the Cell Bank of Type Culture Collection Committee of the Chinese Academy of Sciences. Nivo5 multi-marker analyzer (PerkinElmer).
MCF-7 cells were seeded in a white 384-well plate at 600 cells/[…] suspension/well. The plate was incubated in a CO2 incubator overnight.
On the day of treatment, a day 0 plate coated under the same conditions the day before was taken, centrifuged to remove the medium, added with 25 microliters of Promega CellTiter-Glo reagent to each well, and incubated at room temperature for 10 minutes to stabilize the luminescence signal. Measures were read by PerkinElmer Nivo multi-marker analyzer as an initial value for 0% inhibition.
The test compounds were serially 5-fold diluted to the 10th concentration with a multichannel pipette, i.e., from 2 millimoles to […], and the experiments were set up in duplicate. 47.5 microliters of medium was added to the intermediate plate, 2.5 microliters of serially diluted compounds were transferred to corresponding wells of the intermediate plate, and after mixing, 5 microliters of the mixture per well was transferred to the cell plate. The plate was incubated in a CO2 incubator for 6 days.
After 6 days of co-incubation with the compounds, the plate was centrifuged to remove the medium, added with 25 microliters of Promega CellTiter-Glo reagent to each well, and incubated at room temperature for 10 minutes to stabilize the luminescence signal. Measures were read by PerkinElmer Nivo multi-marker analyzer.
The original data was converted into inhibition rate by the formula: % inhibition=((RFUCmpd−AVER(RFUNeg.Ctrl))/((AVER(RFUDay0)−AVER(RFUNeg.Ctrl))×100%. Curve fitting was conducted and IC50 was calculated.

uterine growth = experiment: Uterine wet weight inhibition in immature rats; assay type: in vivo, female immature rats; details: oral, three consecutive days
Protocol: This study was intended to evaluate the uterine growth inhibition of compounds of the present application in female immature rats aged 18-21 days (provided by Beijing Vital River Laboratory Animal Technology Co., Ltd., with the number of test animals in each experimental group being 5). In this study, 18-day-old female immature rats were given oral doses of 10 mg/kg of the compound of the present application and 0.1 mg/kg of estradiol for three consecutive days, the control group was given oral doses of 0.1 mg/kg of estradiol for three consecutive days, and the blank group was given no drugs except the corresponding vehicle. Three days after the administration, the rats were sacrificed, and the uteruses of the rats were weighed to observe the effect of the test compound on the uterine growth inhibition in rats. Inhibition rate=100*[(VehicleEE−Cpd)/(VehicleEE−Vehicle)], wherein VehicleEE is uterine wet weight in the control group (oral doses of 0.1 mg/kg estradiol); Cpd is the uterine wet weight of the treatment group; Vehicle is the uterine wet weight of rats in the blank group.

breast cancer = details: intramuscular injection, breast cancer patients; cited from earlier work
[1] = cited from earlier work

SMILES: CC/C(=C(/c1ccc(OCCNC/C=C/C(=O)N(C)C)nc1)c1[nH]c2ccccc2c1Cl)c1ccc(F)cc1Cl [Compound 1]
- IC50 (MCF-7 cells): 1.41 nM
- Inhibition rate (uterine growth; 10 mg/kg + estradiol 0.1 mg/kg): 75%
- Uterine wet weight (uterine growth; 10 mg/kg + estradiol 0.1 mg/kg): 0.0672 g

SMILES: C[C@]12CC[C@@H]3c4ccc(O)cc4CC[C@H]3[C@@H]1CC[C@@H]2O [Estradiol, estradiol, reference compound]
- Uterine wet weight (uterine growth; estradiol alone (control group)): 0.1200 g

SMILES: C[C@]12CC[C@@H]3c4ccc(O)cc4C[C@@H](CCCCCCCCC[S+]([O-])CCCC(F)(F)C(F)(F)F)[C@H]3[C@@H]1CC[C@@H]2O (stereo partly drawn) [fulvestrant]
- clinical response rate (breast cancer): about 50%
- bioavailability via oral administration [1]: zero
